Data taken from patent US4632928A, “Pyrazole derivatives with an ergoline skeleton, their acid addition salts, and a process for the preparation thereof” (Richter Gedeon Vegyeszeti Gyar R.T., priority 1983, dated 1986).
Structures can show the parent of a compound that is named as a salt. Where two headings read alike, the source gives them in different places.

What was measured:
PGF2alpha receptor [1] = biological target: T1, PGF2alpha receptor (Rattus norvegicus, UniProt P43118); assay: PGF2alpha antagonist effect in vitro in isolated rat uterus; conditions: compound 2 × 10^-6 M, PGF2alpha 1.4 × 10^-7 M, read-out: Percentual inhibition at concentrations of 2 × 10^-6 M against 1.4 × 10^-7 M PGF2alpha
T1 construct: in the isolated rat uterus; from tissue; host or cells: isolated rat uterus
Source text: (§1) In vitro, in the isolated rat uterus (Table 1), and in vivo in rabbits under urethane anesthesis (Table 2) they antagonize the uterine contraction inducing activity of PGF2alpha. The competitive antagonist effect of the compounds is selective and protracted, while it fails to influence the uterine contraction inducing effect of other endogeneous compounds, i.e. oxytocin. This would enable their use as spasmolytic agents of new mechanism of action in the field of obstetrics and gynecology for the treatment of dysmenorrhea and anovulation, and the prevention of imminent and habitual abortus and miscarriage.
PGF2alpha antagonist effect of the compounds of general
formula (I) in vitro in isolated rat uterus
Method: 1. J. H. Gaddum and K. A. Hammed:
2. O. Arunlakshana and H. O Schild:
Compound Percentual inhibition at concentrations

[2] = Acute toxicity in CFLP mice (Probite analysis according to Litchfield-Wilcoxon); conditions: mouse, in vivo
Source text: Acute toxicity of pyrazole derivatives of
general formula (I) in CFLP mice
Method: Probite analysis according to Litchfield-
Wilcoxon [J. Pharm. Exp. Ther. 96, 99 (1949)]

PGF2alpha receptor [3] = assay: In vivo PGF2alpha antagonist effect in urethane anesthesized rabbits; conditions: PGF2alpha 6.25 μg/kg iv; for Duration of the effect: rabbits; for Inhibition: urethane anesthesized rabbits
Source text: as §1
In vivo PGF2alpha antagonist effect of pyrazole deriva-
tives of general formula (I) in urethane (1.2 g/kg iv)
1. D. F. Hawkins: Agents Acting on the Uterus.
In: Evaluation of Drug Activities: Pharma-
cometrics. Edited by R. Lawrence and A. L.
Bacharach. Academic Press, London, p. 680 (1964)
2. A. R. Cushny: J. Physiol. 35, 1 (1906)
PGF2alpha standard dose: 6.25 μg/kg iv

uterine musculature = conditions: known compounds with ergoline skeleton; cited from earlier work

T1 sequence (P43118 whole entry): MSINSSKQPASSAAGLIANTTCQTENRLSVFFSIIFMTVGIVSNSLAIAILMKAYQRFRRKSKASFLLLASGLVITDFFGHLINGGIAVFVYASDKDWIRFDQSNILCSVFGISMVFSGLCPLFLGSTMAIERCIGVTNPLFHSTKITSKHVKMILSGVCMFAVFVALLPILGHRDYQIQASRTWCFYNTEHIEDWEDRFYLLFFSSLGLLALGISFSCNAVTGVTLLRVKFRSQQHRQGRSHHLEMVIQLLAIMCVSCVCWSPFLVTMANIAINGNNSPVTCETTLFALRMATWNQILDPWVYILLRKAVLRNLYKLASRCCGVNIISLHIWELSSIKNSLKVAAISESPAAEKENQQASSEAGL

CN1C[C@H](Cn2nc(-c3cccnc3)c3c2CCC3)C=C2c3cccc4[nH]cc(c34)C[C@H]21 [Example 5, 8-beta-[3(5)-(3-Pyridyl)-cyclopentano/4,5(3,4)/pyrazol-1-yl-methylene]-6-methyl-ergol-9-ene]
inhibition at 2 µM (PGF2alpha receptor [1]): 46%
LD50 ([2]; ip, read-out: LD50 ip): > 100 mg/kg
LD50 ([2]; po, read-out: LD50 po): > 100 mg/kg

Cc1cc(-c2ccccn2)nn1C[C@@H]1C=C2c3cccc4[nH]cc(c34)C[C@H]2N(C)C1 [Example 16, 8-beta-[3(5)-/2-Pyridyl/-5(3)-methyl-pyrazol-1-yl-methylene]-6-methyl-ergol-9-ene]
inhibition at 2 µM (PGF2alpha receptor [1]): 18%
LD50 ([2]; ip, read-out: LD50 ip): > 100 mg/kg
LD50 ([2]; po, read-out: LD50 po): > 100 mg/kg

Cc1nn(C[C@@H]2C=C3c4cccc5c4c(cn5C)C[C@H]3N(C)C2)c2c1CCC2 [Example 2, 8-beta-[3(5)-Methyl-cyclopentane/4,5(3,4)/pyrazol-1-yl-methylene]-1,6-dimethyl-ergol-9-ene hydrogen maleinate]
inhibition at 2 µM (PGF2alpha receptor [1]): 58%
LD50 ([2]; ip, read-out: LD50 ip): > 100 mg/kg
LD50 ([2]; po, read-out: LD50 po): > 100 mg/kg

Cc1nn(C[C@@H]2C=C3c4cccc5[nH]cc(c45)C[C@H]3N(C)C2)c2c1CCC2 [Hydrogen-fumarate of 1, 8-beta-[3(5)-methyl-cyclopentano/4,5(3,4)/pyrazol-1-yl-methylene]-6-methyl-ergol-9-ene hydrogen fumarate]
Duration of the effect (PGF2alpha receptor [3]; 3.0 mg/kg intraduodenal): > 180 min
Inhibition (PGF2alpha receptor [3]; 3.0 mg/kg intraduodenal): 63%

CC(C)C[C@H]1C(=O)N2CCC[C@H]2[C@]2(O)O[C@](NC(=O)[C@@H]3C=C4c5cccc6[nH]c(Br)c(c56)C[C@H]4N(C)C3)(C(C)C)C(=O)N12 [bromocryptine]
effect on the uterine musculature (uterine musculature): uterine relaxants

Cc1nn(C[C@@H]2C=C3c4cccc5[nH]cc(c45)C[C@H]3N(C)C2)c2c1C(O)CC2 (stereo partly drawn) [Example 7, 8-beta-[3(6)-Methyl-4(5)-hydroxy-cyclopentano/4,5(3,4)/pyrazol-1-yl-methylene]-6-methyl-ergol-9-ene]
LD50 ([2]; ip, read-out: LD50 ip): > 100 mg/kg
LD50 ([2]; po, read-out: LD50 po): > 100 mg/kg

Cc1nn(C[C@@H]2C[C@@H]3c4cccc5[nH]cc(c45)C[C@H]3N(C)C2)c2c1CCC2 [Example 4, 8-beta-[3(5)-Methyl-cyclopentano/4,5(3,4)/pyrazol-1-yl-methylene]-6-methyl-ergoline]
LD50 ([2]; ip, read-out: LD50 ip): > 100 mg/kg
LD50 ([2]; po, read-out: LD50 po): > 100 mg/kg

CN1C[C@H](C(=O)N[C@]2(C)O[C@@]3(O)[C@@H]4CCCN4C(=O)[C@H](Cc4ccccc4)N3C2=O)C[C@@H]2c3cccc4[nH]cc(c34)C[C@H]21 [dihydroergotamine]
effect on the uterine musculature (uterine musculature): uterine relaxants

Cc1nn(C[C@@H]2C=C3c4cccc5[nH]cc(c45)C[C@H]3N(C)C2)c2c1C(=O)CC2 [Example 6, 8-beta-[3(6)-Methyl-4(5)-oxo-cyclopentano/4,5(3,4)/pyrazol-1-yl-methylene]-6-methyl-ergol-9-ene]
LD50 ([2]; ip, read-out: LD50 ip): > 200 mg/kg
LD50 ([2]; po, read-out: LD50 po): 1000 mg/kg

CC(=O)c1c(C)nn(C[C@@H]2C=C3c4cccc5[nH]cc(c45)C[C@H]3N(C)C2)c1C [Example 18, 8-beta-[3,5-Dimethyl-4-(1-oxo-ethyl)-pyrazol-1-yl-methylene]-6-methyl-ergol-9-ene]
LD50 ([2]; ip, read-out: LD50 ip): > 100 mg/kg
LD50 ([2]; po, read-out: LD50 po): > 100 mg/kg

Cc1nn(C[C@@H]2C=C3c4cccc5[nH]cc(c45)C[C@H]3N(C)C2)c2c1CCC2 [Example 1, 8-beta-[3(5)-Methyl-cyclopentano/4,5(3,4)/pyrazol-1-yl-methylene]-6-methyl-ergol-9-ene]
inhibition at 2 µM (PGF2alpha receptor [1]): 70%
Duration of the effect (PGF2alpha receptor [3]; 0.3 mg/kg intraduodenal): > 180 min
Inhibition (PGF2alpha receptor [3]; 0.3 mg/kg intraduodenal): 38%
Duration of the effect (PGF2alpha receptor [3]; 1.0 mg/kg intraduodenal): > 180 min
Inhibition (PGF2alpha receptor [3]; 1.0 mg/kg intraduodenal): 49%
LD50 ([2]; ip, read-out: LD50 ip): 3100 mg/kg
LD50 ([2]; po, read-out: LD50 po): 2450 mg/kg

CN1C[C@H](C(=O)N[C@]2(C)O[C@@]3(O)[C@@H]4CCCN4C(=O)[C@H](Cc4ccccc4)N3C2=O)C=C2c3cccc4[nH]cc(c34)C[C@H]21 [ergotamine]
effect on the uterine musculature (uterine musculature): inducing uterine contraction

C=CCc1c(C)nn(C[C@@H]2C=C3c4cccc5[nH]cc(c45)C[C@H]3N(C)C2)c1C [Example 14, 8-beta-(3,5-Dimethyl-4-allyl-pyrazol-1-yl-methylene)-6-methyl-ergol-9-ene]
inhibition at 2 µM (PGF2alpha receptor [1]): 77%
LD50 ([2]; ip, read-out: LD50 ip): > 100 mg/kg
LD50 ([2]; po, read-out: LD50 po): > 100 mg/kg

Cc1nn(C[C@@H]2C=C3c4cccc5[nH]cc(c45)C[C@H]3N(C)C2)c2c1C(=NO)CC2 [Example 8, 8-beta-[3(6)-Methyl-4(5)-hydroxy-imino-cyclopentano/4,5(3,4)/pyrazol-1-yl-methylene]-6-methyl-ergol-9-ene]
LD50 ([2]; ip, read-out: LD50 ip): > 100 mg/kg
LD50 ([2]; po, read-out: LD50 po): > 100 mg/kg

Cc1nn(C[C@@H]2C=C3c4cccc5[nH]cc(c45)C[C@H]3N(C)C2)c2c1C(=NO)CC(C)(C)C2 [Example 11, 8-beta-[3(7),6(4)-Trimethyl-4(6)-hydroxy-imino-cyclohexano/4,5(3,4)/pyrazol-1-yl-methylene]-6-methyl-ergol-9-ene]
inhibition at 2 µM (PGF2alpha receptor [1]): 80%
Duration of the effect (PGF2alpha receptor [3]; 20.0 mg/kg intraduodenal): > 120 min
Inhibition (PGF2alpha receptor [3]; 20.0 mg/kg intraduodenal): 72%
LD50 ([2]; ip, read-out: LD50 ip): > 100 mg/kg
LD50 ([2]; po, read-out: LD50 po): > 100 mg/kg

CCOC(=O)c1nn(C[C@@H]2C=C3c4cccc5[nH]cc(c45)C[C@H]3N(C)C2)c(O)c1C [Example 15, 8-beta-(3-Carbethoxy-4-methyl-5-hydroxy-pyrazol-1-yl-methylene)-6-methyl-ergol-9-ene]
inhibition at 2 µM (PGF2alpha receptor [1]): 40%
LD50 ([2]; ip, read-out: LD50 ip): > 100 mg/kg
LD50 ([2]; po, read-out: LD50 po): > 100 mg/kg

Cc1nn(C[C@@H]2C=C3c4cccc5[nH]cc(c45)C[C@H]3N(C)C2)c2c1C(=O)CC(C)(C)C2 [Example 10]
inhibition at 2 µM (PGF2alpha receptor [1]): 66%
Duration of the effect (PGF2alpha receptor [3]; 20.0 mg/kg intraduodenal): 90 min
Inhibition (PGF2alpha receptor [3]; 20.0 mg/kg intraduodenal): 42%
LD50 ([2]; ip, read-out: LD50 ip): > 100 mg/kg
LD50 ([2]; po, read-out: LD50 po): > 100 mg/kg

hydergine
effect on the uterine musculature (uterine musculature): uterine relaxants

CC[C@@H](CO)NC(=O)[C@@H]1C=C2c3cccc4[nH]cc(c34)C[C@H]2N(C)C1 [methylergometrin]
effect on the uterine musculature (uterine musculature): inducing uterine contraction

Cc1nn(C[C@@H]2C=C3c4cccc5[nH]cc(c45)C[C@H]3N(C)C2)c2c1CCCC2 [Example 9, 8-beta-[3(5)-Methyl-cyclohexano/4,5(3,4)/pyrazol-1-yl-methylene]-6-methyl-ergol-9-ene]
inhibition at 2 µM (PGF2alpha receptor [1]): 40%
Duration of the effect (PGF2alpha receptor [3]; 3.0 mg/kg intraduodenal): > 180 min
Inhibition (PGF2alpha receptor [3]; 3.0 mg/kg intraduodenal): 58%
Duration of the effect (PGF2alpha receptor [3]; 10.0 mg/kg intraduodenal): > 180 min
Inhibition (PGF2alpha receptor [3]; 10.0 mg/kg intraduodenal): 68%
LD50 ([2]; ip, read-out: LD50 ip): > 100 mg/kg
LD50 ([2]; po, read-out: LD50 po): > 100 mg/kg

Cc1cc(-c2ccccn2)nn1C[C@@H]1C[C@@H]2c3cccc4[nH]cc(c34)C[C@H]2N(C)C1 [Example 17, 8-beta-[3(5)-/2-Pyridyl/-5(3)-methyl-pyrazol-1-yl-methylene]-6-methyl-ergoline]
inhibition at 2 µM (PGF2alpha receptor [1]): 44%
Duration of the effect (PGF2alpha receptor [3]; 10.0 mg/kg intraduodenal): 120 min
Inhibition (PGF2alpha receptor [3]; 10.0 mg/kg intraduodenal): 55%
Duration of the effect (PGF2alpha receptor [3]; 20.0 mg/kg intraduodenal): > 150 min
Inhibition (PGF2alpha receptor [3]; 20.0 mg/kg intraduodenal): 77%
LD50 ([2]; ip, read-out: LD50 ip): > 100 mg/kg
LD50 ([2]; po, read-out: LD50 po): > 100 mg/kg

C[C@@H](CO)NC(=O)[C@@H]1C=C2c3cccc4[nH]cc(c34)C[C@H]2N(C)C1 [ergometrin]
effect on the uterine musculature (uterine musculature): inducing uterine contraction
